Reference: DBAASP
Values after ≈ are worked out from the molar mass of the structure shown. Values joined by “and” are separate entries in the source; they are usually repeats but may differ in a detail not shown here. Equal entries are not always repeated.

Assays:
Assay in all cases: ≥ marks a high value that may be exact or a test limit, other limits are often not marked, values filed in µg/mL are converted to µM
Escherichia coli = system: Escherichia coli
Bacillus cereus = system: Bacillus cereus
Staphylococcus aureus = system: Staphylococcus aureus
[1] = system: Enterococcus faecalis ATCC 29212
[2] = system: Salmonella enterica subsp. enterica serovar Typhimurium ATCC 14028
[3] = system: Staphylococcus aureus ATCC 25923
[4] = system: Pseudomonas aeruginosa ATCC 27853
[5] = system: Escherichia coli DH5alpha
[6] = system: Klebsiella pneumoniae ATCC 13883
Bacillus subtilis = system: Bacillus subtilis
[7] = system: Escherichia coli ATCC 25922
[8] = system: Candida albicans ATCC 2002
[9] = system: Pseudomonas aeruginosa CMCCB 10104
[10] = system: Escherichia coli KCTC 1682
[11] = system: Staphylococcus epidermidis KCTC 1917
[12] = system: Staphylococcus aureus KCTC 1621
[13] = system: Pseudomonas aeruginosa KCTC 1637
[14] = system: Bacillus subtilis KCTC 3068
[15] = system: Salmonella typhimurium KCTC 1926
Klebsiella pneumoniae = system: Klebsiella pneumoniae
[16] = system: Acinetobacter baumannii ATCC 19606
Pseudomonas aeruginosa = system: Pseudomonas aeruginosa
Acinetobacter baumannii = system: Acinetobacter baumannii
[17] = system: Pseudomonas aeruginosa PAO1

For `CC(C)C[C@H](NC(=O)[C@@H](N)Cc1ccccc1)C(=O)NCC(=O)NCC(=O)N[C@H](C(=O)N[C@@H](Cc1ccccc1)C(=O)N[C@@H](CCCCN)C(=O)N[C@@H](CCCCN)C(=O)N[C@@H](C)C(=O)N[C@@H](CO)C(=O)N[C@@H](CCCCN)C(=O)N[C@H](C(=O)N[C@@H](Cc1ccccc1)C(=O)NCC(=O)N[C@@H](C)C(=O)N[C@H](C(=O)N[C@@H](Cc1ccccc1)C(=O)NCC(=O)N[C@@H](CCCCN)C(=O)N[C@H](C(=O)O)C(C)C)C(C)C)C(C)C)C(C)C` [FLGGVFKKASKVFGAVFGKV], the MIC (Escherichia coli) was 15.3 µM (≈ 32 µg/mL), the MIC (Bacillus cereus) was ≥ 61.3 µM and the MIC (Staphylococcus aureus) was > 123 µM.

`CC[C@H](C)[C@H](NC(=O)CN)C(=O)NCC(=O)N[C@@H](CCCCN)C(=O)N[C@@H](C)C(=O)N[C@@H](CC(C)C)C(=O)N[C@@H](CCCCN)C(=O)N[C@@H](CCCCN)C(=O)N[C@@H](C)C(=O)N[C@@H](CCCCN)C(=O)N[C@@H](CCCCN)C(=O)NCC(=O)N[C@H](C(=O)NCC(=O)N[C@@H](C)C(=O)N[C@H](C(=O)N[C@@H](CC(C)C)C(=O)N[C@@H](CCCCN)C(=O)N[C@H](C(=O)N[C@@H](CC(C)C)C(=O)N[C@H](C(=O)N[C@H](C(=O)NCC(=O)N[C@@H](CC(C)C)C(=O)O)[C@@H](C)O)[C@@H](C)O)C(C)C)C(C)C)[C@@H](C)CC` [GIGKALKKAKKGIGAVLKVLTTGL] gave an MIC [1] of 32 µM (≈ 75.7 µg/mL), an MIC [2] of 8 µM (≈ 18.9 µg/mL) and an MIC [3] of 4 µM (≈ 9.46 µg/mL). The MIC [4] was 45 µM (≈ 106 µg/mL), the MIC [5] was 15 µM (≈ 35.5 µg/mL) and the MIC [6] was 8 µM (≈ 18.9 µg/mL). The MIC (Bacillus subtilis) was 8 µM (≈ 18.9 µg/mL).

Compound `CC[C@H](C)[C@H](NC(=O)CN)C(=O)N[C@@H](CC(C)C)C(=O)N[C@@H](CO)C(=O)NCC(=O)N[C@H](C(=O)N[C@@H](CC(C)C)C(=O)NCC(=O)N[C@@H](CCSC)C(=O)NCC(=O)N[C@@H](CCCCN)C(=O)N[C@@H](CCCCN)C(=O)N[C@H](C(=O)N[C@H](C(=O)N[C@H]1CSSC[C@@H](C(=O)O)NC(=O)[C@H](CC(C)C)NC(=O)CNC(=O)[C@H](CO)NC(=O)[C@H](CC(C)C)NC(=O)CNC1=O)C(C)C)[C@@H](C)CC)C(C)C` [GILSGVLGMGKKIVCGLSGLC] has an MIC (Escherichia coli) of 25 µM (≈ 50.1 µg/mL), an MIC [7] of 2.19 µM (≈ 4.4 µg/mL) and an MIC [8] of 2.19 µM (≈ 4.4 µg/mL). It also gave an MIC [3] of 4.39 µM (≈ 8.79 µg/mL), an MIC (Staphylococcus aureus) of 50 µM (≈ 100 µg/mL) and an MIC [9] of 4.39 µM (≈ 8.79 µg/mL).

`CC[C@H](C)[C@H](N)C(=O)NCC(=O)N[C@@H](CCCCN)C(=O)N[C@@H](CCCCN)C(=O)N[C@@H](Cc1ccccc1)C(=O)N[C@@H](CCCCN)C(=O)N[C@@H](CCCN=C(N)N)C(=O)N[C@H](C(=O)N[C@H](C(=O)N[C@@H](CCCCN)C(=O)N[C@@H](CCCN=C(N)N)C(=O)N[C@H](C(=O)N[C@@H](CCCCN)C(=O)N[C@@H](CCCCN)C(=O)N[C@@H](Cc1ccccc1)C(=O)N[C@@H](CC(C)C)C(=O)N[C@@H](CCCN=C(N)N)C(=O)N[C@@H](CCCCN)C(=O)N[C@@H](CC(C)C)C(=O)O)[C@@H](C)CC)C(C)C)[C@@H](C)CC` [IGKKFKRIVKRIKKFLRKL] gave an MIC [10] of 8 µM (≈ 19.2 µg/mL), an MIC [11] of 4 µM (≈ 9.6 µg/mL) and an MIC [12] of 4 µM (≈ 9.6 µg/mL). For the same compound, the MIC [13] was 8 µM (≈ 19.2 µg/mL), the MIC [14] was 2 µM (≈ 4.8 µg/mL) and the MIC [15] was 2 µM (≈ 4.8 µg/mL).

Compound `CC[C@H](C)[C@H](N)C(=O)N[C@@H](CC(C)C)C(=O)N1CCC[C@H]1C(=O)N[C@@H](Cc1c[nH]c2ccccc12)C(=O)N[C@@H](CCCCN)C(=O)N[C@@H](Cc1c[nH]c2ccccc12)C(=O)N1CCC[C@H]1C(=O)N[C@@H](CCCCN)C(=O)N[C@@H](CCCCN)C(=O)N1CCC[C@H]1C(=O)N[C@@H](Cc1c[nH]c2ccccc12)C(=O)N[C@@H](CCCN=C(N)N)C(=O)N[C@@H](CCCN=C(N)N)C(N)=O` [ILPWKWPKKPWRR] has an MIC [10] of 2.79 µM (≈ 5 µg/mL), an MIC [11] of 2.79 µM (≈ 5 µg/mL) and an MIC [12] of 2.79 µM (≈ 5 µg/mL). The MIC [13] was 22.3 µM (≈ 40 µg/mL), the MIC [14] was 5.58 µM (≈ 9.99 µg/mL) and the MIC [15] was 2.79 µM (≈ 5 µg/mL).

`CC[C@H](C)[C@H](NC(=O)[C@H](CCCCN)NC(=O)[C@H](CC(C)C)NC(=O)[C@H](C)NC(=O)[C@H](CCCCN)NC(=O)[C@H](CC(C)C)NC(=O)[C@H](C)NC(=O)CNC(=O)[C@H](CCCCN)NC(=O)[C@H](C)NC(=O)[C@@H](NC(=O)[C@@H](N)CCCCN)[C@@H](C)CC)C(=O)N[C@@H](C)C(=O)N[C@@H](CCCCN)C(=O)NCC(=O)N[C@@H](C)C(=O)N[C@@H](CC(C)C)C(=O)N[C@@H](CCCCN)C(=O)N[C@@H](C)C(=O)N[C@@H](CC(C)C)C(N)=O` [KIAKGALKALKIAKGALKAL] gave an MIC (Escherichia coli) of 64 µM (≈ 128 µg/mL), an MIC (Klebsiella pneumoniae) of 8 µM (≈ 16 µg/mL) and an MIC [7] of 4 µM (≈ 8.02 µg/mL). It also gave an MIC [3] of 22.6 µM (≈ 45.4 µg/mL), an MIC [4] of 11.3 µM (≈ 22.7 µg/mL) and an MIC [6] of 2.83 µM (≈ 5.67 µg/mL). It also gave an MIC (Staphylococcus aureus) of 16 µM (≈ 32.1 µg/mL), an MIC [16] of 1.41 µM (≈ 2.84 µg/mL) and an MIC (Pseudomonas aeruginosa) of 11.3 µM (≈ 22.7 µg/mL). For the same compound, the MIC (Acinetobacter baumannii) was ≥ 64 µM.

`CC[C@H](C)[C@H](NC(=O)[C@@H](NC(=O)[C@H](CC(C)C)NC(=O)[C@H](C)NC(=O)[C@@H]1CCCN1C(=O)CNC(=O)[C@H](Cc1ccc(O)cc1)NC(=O)[C@@H](N)CCCCN)C(C)C)C(=O)N[C@@H](C)C(=O)N[C@H](C(=O)N[C@@H](CCCCN)C(=O)N[C@@H](CCCCN)C(=O)N[C@@H](CO)C(=O)N[C@@H](CS)C(=O)N[C@@H](CO)C(=O)N[C@@H](CC(C)C)C(=O)N[C@H](C(=O)N[C@@H](Cc1ccccc1)C(=O)N[C@@H](CCCN=C(N)N)C(=O)N[C@@H](C)C(=O)O)[C@@H](C)O)C(C)C` [KYGPALVIAVKKSCSLTFRA] was tested, and the MIC (Escherichia coli) was > 119 µM and the MIC (Bacillus cereus) was ≥ 119 µM.

For `CC(C)C[C@H](NC(=O)[C@H](C)NC(=O)[C@H](Cc1c[nH]c2ccccc12)NC(=O)CNC(=O)[C@H](CCCN=C(N)N)NC(=O)[C@@H](N)CCCN=C(N)N)C(=O)N[C@@H](CCCN=C(N)N)C(=O)N1CCC[C@H]1C(=O)N[C@H](C(=O)N[C@@H](CC(C)C)C(=O)N[C@@H](C)C(=O)N[C@@H](Cc1ccccc1)C(=O)NCC(=O)N[C@@H](CCCN=C(N)N)C(=O)N[C@@H](CCCN=C(N)N)C(N)=O)C(C)C` [RRGWALRPVLAFGRR], the MIC [7] was > 30 µM, the MIC [17] was 14.8 µM and 30 µM and the MIC [2] was > 30 µM. For the same compound, the MIC [3] was > 30 µM, the MIC [6] was 30 µM (≈ 54.3 µg/mL) and the MIC [16] was > 30 µM.

`CC(C)C[C@H](NC(=O)[C@H](CCCN=C(N)N)NC(=O)[C@H](CCCN=C(N)N)NC(=O)[C@H](C)NC(=O)[C@H](Cc1c[nH]c2ccccc12)NC(=O)CNC(=O)[C@H](CCCN=C(N)N)NC(=O)[C@@H](N)CCCN=C(N)N)C(=O)N[C@@H](C)C(=O)N[C@@H](Cc1ccccc1)C(=O)NCC(=O)N[C@@H](CCCN=C(N)N)C(=O)N[C@@H](CCCN=C(N)N)C(N)=O` [RRGWARRLAFGRR] was tested, and the MIC [7] was > 30 µM, the MIC [17] was > 30 µM and the MIC [2] was > 30 µM. The MIC [3] was > 30 µM, the MIC [6] was 30 µM (≈ 49.7 µg/mL) and the MIC [16] was > 30 µM.

With `CC[C@H](C)[C@H](NC(=O)[C@@H](NC(=O)[C@@H](NC(=O)[C@@H](NC(=O)[C@H](CCCN=C(N)N)NC(=O)[C@H](CCCCN)NC(=O)[C@@H](NC(=O)CNC(=O)[C@@H]1CCCN1C(=O)[C@@H](NC(=O)[C@H](CO)NC(=O)[C@H](Cc1ccccc1)NC(=O)[C@@H](NC(=O)CNC(=O)[C@H](C)NC(=O)[C@H](CC(C)C)NC(=O)[C@@H]1CCCN1C(=O)[C@H](Cc1ccccc1)NC(=O)[C@H](CCCCN)NC(=O)[C@@H](N)CO)[C@@H](C)CC)C(C)C)C(C)C)C(C)C)C(C)C)C(C)C)C(=O)O` [SKFPLAGIFSVPGVKRVVVI] the MIC (Escherichia coli) was > 121 µM and the MIC (Bacillus cereus) was ≥ 121 µM.

`CC[C@H](C)[C@H](NC(=O)[C@H](Cc1ccccc1)NC(=O)[C@H](CCCCN)NC(=O)[C@H](C)NC(=O)[C@H](CC(C)C)NC(=O)[C@H](CC(=O)O)NC(=O)[C@H](CCCCN)NC(=O)[C@@H](N)C(C)C)C(=O)N[C@@H](C)C(=O)N[C@@H](CCCCN)C(=O)N[C@H](C(=O)N[C@H](C(=O)N[C@@H](C)C(=O)N[C@@H](CCCCN)C(=O)N[C@@H](CCC(N)=O)C(=O)NCC(=O)NCC(=O)N[C@@H](CS)C(=O)N[C@@H](Cc1ccc(O)cc1)C(=O)N[C@@H](CC(C)C)C(=O)O)C(C)C)[C@@H](C)O` [VKDLAKFIAKTVAKQGGCYL] was tested, and the MIC (Escherichia coli) was > 59.4 µM and the MIC (Bacillus cereus) was ≥ 59.4 µM.
